For three compounds, solubility results are on record in ChEMBL document CHEMBL3879902, “Compounds and methods for kinase modulation, and indications thereof” (2012).

Data set [1] is described as follows: Aqueous solubility of the compound in simulated gastric fluid at pH 1.5. The data set is classed as ADME. The following applies: simulated gi fluid.
A short description of data set [2]: Aqueous solubility of the compound in simulated intestinal fluid at pH 4.5. The data set is classed as ADME. The following applies: simulated gi fluid.
The nature of data set [3]: Aqueous solubility of the compound in simulated intestinal fluid at pH 6.8. The data set is classed as ADME. The following applies: simulated gi fluid.
Data set [4] in a line: Aqueous solubility of the compound in hepes buffer at pH 7.4. It is filed as physicochemical.

Turning to `COc1ncc(-c2cnc3[nH]cc(C(=O)c4c(F)ccc(NS(=O)(=O)c5cccc(F)c5)c4F)c3c2)cn1`, the solubility result in data set [1] is “Insoluble”; in data set [2], “Insoluble”; in data set [3] it was “Insoluble”; in data set [4], “Soluble”.
`C#Cc1cnc2[nH]cc(C(=O)c3c(F)ccc(NS(=O)(=O)CCC)c3F)c2c1`: the solubility entry in data set [1], in data set [2], in data set [3] and in data set [4] was “Insoluble” in each case.
Take `COc1ccnc2[nH]cc(C(=O)c3c(F)ccc(NS(=O)(=O)c4ccccc4F)c3F)c12`: the solubility entry in data set [1], in data set [2], in data set [3] and in data set [4] was “Soluble” each time.
